Measurements reported in ChEMBL document CHEMBL2346515, “Discovery of 4-alkylamino-7-aryl-3-cyanoquinoline LRRK2 kinase inhibitors” (Bioorg Med Chem Lett, 2013).
Each block holds one compound with its values, some of them ahead of it.

How the values were obtained:
[1] = target: Serine/threonine-protein kinase PLK1 (Homo sapiens) (UniProt P53350); experiment: Inhibition of PLK1 (unknown origin) at 10 uM by single point assay
[2] = target: RAF proto-oncogene serine/threonine-protein kinase (Homo sapiens) (UniProt P04049); experiment: Inhibition of RAF1 (unknown origin) at 10 uM by single point assay
Chain of RAF proto-oncogene serine/threonine-protein kinase (Homo sapiens) (P04049 whole entry): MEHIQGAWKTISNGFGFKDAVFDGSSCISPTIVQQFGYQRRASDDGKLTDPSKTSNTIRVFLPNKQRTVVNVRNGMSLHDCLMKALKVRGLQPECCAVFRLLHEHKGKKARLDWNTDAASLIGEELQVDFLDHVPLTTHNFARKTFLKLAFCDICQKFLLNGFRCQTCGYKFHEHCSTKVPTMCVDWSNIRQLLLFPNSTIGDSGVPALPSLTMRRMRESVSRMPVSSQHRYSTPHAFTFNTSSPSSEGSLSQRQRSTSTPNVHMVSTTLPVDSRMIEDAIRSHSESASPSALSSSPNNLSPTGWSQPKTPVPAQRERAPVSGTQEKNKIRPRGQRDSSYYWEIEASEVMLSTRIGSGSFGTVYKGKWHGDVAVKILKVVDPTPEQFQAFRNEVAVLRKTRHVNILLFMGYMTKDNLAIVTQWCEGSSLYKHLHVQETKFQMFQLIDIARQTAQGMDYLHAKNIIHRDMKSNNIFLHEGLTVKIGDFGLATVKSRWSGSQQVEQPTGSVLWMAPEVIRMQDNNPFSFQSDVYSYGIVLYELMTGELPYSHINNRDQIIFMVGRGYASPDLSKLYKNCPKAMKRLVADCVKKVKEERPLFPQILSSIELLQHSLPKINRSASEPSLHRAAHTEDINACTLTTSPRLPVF

[3] = target: Insulin receptor (Homo sapiens) (UniProt P06213); experiment: Inhibition of INSR (unknown origin) at 10 uM by single point assay
Chain of Insulin receptor (Homo sapiens) (P06213 28-758 limits assumed): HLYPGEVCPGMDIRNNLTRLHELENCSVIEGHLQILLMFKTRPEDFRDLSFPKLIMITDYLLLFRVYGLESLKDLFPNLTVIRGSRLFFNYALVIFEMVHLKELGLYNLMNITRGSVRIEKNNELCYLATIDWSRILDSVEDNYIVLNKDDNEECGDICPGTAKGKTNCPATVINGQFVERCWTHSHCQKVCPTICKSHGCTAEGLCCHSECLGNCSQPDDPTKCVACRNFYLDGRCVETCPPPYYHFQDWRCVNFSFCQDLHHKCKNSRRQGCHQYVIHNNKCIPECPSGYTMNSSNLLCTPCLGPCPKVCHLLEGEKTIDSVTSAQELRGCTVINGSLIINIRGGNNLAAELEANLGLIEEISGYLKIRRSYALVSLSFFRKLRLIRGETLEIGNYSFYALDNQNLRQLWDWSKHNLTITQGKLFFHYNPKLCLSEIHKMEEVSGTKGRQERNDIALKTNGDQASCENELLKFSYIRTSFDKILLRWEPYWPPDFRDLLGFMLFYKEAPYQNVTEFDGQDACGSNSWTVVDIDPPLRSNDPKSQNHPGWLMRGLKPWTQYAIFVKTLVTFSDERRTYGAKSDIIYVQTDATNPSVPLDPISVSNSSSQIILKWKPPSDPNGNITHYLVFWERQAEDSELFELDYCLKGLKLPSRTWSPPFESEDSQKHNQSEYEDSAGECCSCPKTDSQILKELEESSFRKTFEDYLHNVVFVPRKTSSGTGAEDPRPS
Chain of Insulin receptor (Homo sapiens) (P06213 763-1382 limits assumed): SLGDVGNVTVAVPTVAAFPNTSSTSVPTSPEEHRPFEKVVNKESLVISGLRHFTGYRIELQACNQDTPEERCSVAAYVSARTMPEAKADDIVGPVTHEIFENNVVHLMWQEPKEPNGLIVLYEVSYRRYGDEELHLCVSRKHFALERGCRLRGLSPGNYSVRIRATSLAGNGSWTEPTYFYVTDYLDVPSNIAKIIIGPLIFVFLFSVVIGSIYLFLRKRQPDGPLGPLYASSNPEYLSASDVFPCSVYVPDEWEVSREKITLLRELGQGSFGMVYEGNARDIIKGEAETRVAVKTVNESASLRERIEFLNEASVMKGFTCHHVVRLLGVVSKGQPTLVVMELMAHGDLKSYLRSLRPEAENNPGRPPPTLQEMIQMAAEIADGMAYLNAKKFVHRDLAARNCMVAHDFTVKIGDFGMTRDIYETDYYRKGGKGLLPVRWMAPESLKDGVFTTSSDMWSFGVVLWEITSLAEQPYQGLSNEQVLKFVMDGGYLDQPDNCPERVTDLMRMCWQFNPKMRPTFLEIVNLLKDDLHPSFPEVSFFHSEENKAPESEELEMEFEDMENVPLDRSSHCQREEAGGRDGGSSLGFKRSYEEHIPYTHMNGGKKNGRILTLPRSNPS

[4] = target: cAMP-dependent protein kinase catalytic subunit alpha (Homo sapiens) (UniProt P17612); experiment: Inhibition of PRKACA (unknown origin) at 10 uM by single point assay
[5] = target: RAC-alpha serine/threonine-protein kinase (Homo sapiens) (UniProt P31749); experiment: Inhibition of AKT1 (unknown origin) at 10 uM by single point assay
[6] = target: Tyrosine-protein kinase SYK (Homo sapiens) (UniProt P43405); experiment: Inhibition of SYK (unknown origin) at 10 uM by single point assay
[7] = target: Cyclin-dependent kinase 5/CDK5 activator 1 (Homo sapiens) (UniProt Q00535+Q15078); experiment: Inhibition of CDK5/p25 (unknown origin) at 10 uM by single point assay; type: protein-complex assay
[8] = target: Receptor-interacting serine/threonine-protein kinase 2 (Homo sapiens) (UniProt O43353); experiment: Inhibition of RIPK2 (unknown origin) at 10 uM by single point assay
Chain of Receptor-interacting serine/threonine-protein kinase 2 (Homo sapiens) (O43353 whole entry): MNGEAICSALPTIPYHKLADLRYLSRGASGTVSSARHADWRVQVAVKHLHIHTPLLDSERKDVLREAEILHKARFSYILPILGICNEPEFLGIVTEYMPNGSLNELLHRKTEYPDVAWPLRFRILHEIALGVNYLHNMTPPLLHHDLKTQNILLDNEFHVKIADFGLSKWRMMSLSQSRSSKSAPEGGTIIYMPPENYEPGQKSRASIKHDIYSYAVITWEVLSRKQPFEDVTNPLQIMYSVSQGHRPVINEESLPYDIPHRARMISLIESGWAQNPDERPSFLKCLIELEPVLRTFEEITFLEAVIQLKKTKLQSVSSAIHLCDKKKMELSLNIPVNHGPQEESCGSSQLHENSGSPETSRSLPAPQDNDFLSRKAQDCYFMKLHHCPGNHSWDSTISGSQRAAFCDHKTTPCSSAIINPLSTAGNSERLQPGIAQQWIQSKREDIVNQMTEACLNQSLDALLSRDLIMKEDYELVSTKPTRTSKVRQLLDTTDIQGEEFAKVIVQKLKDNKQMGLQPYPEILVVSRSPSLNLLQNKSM

[9] = target: T1, Serine/threonine-protein kinase Chk1 (Homo sapiens) (UniProt O14757); experiment: Inhibition of CHK1 (unknown origin) at 10 uM by single point assay
T1 sequence (whole entry): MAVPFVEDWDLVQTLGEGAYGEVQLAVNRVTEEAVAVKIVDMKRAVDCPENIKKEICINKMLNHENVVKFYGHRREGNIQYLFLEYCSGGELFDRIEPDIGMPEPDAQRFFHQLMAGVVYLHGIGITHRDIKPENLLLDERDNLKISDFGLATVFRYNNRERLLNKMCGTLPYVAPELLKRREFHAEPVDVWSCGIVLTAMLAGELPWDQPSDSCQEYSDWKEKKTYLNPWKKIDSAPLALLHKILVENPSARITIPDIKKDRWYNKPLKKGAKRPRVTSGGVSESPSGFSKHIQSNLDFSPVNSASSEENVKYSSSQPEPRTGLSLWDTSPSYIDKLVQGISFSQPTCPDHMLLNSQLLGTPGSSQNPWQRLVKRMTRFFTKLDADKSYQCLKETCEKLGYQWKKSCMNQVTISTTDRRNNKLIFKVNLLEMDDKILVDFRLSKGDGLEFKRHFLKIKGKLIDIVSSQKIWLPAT

[10] = target: Tyrosine-protein kinase Lck (Homo sapiens) (UniProt P06239); experiment: Inhibition of LCK (unknown origin) at 10 uM by single point assay
Chain of Tyrosine-protein kinase Lck (Homo sapiens) (P06239 2-509 limits assumed): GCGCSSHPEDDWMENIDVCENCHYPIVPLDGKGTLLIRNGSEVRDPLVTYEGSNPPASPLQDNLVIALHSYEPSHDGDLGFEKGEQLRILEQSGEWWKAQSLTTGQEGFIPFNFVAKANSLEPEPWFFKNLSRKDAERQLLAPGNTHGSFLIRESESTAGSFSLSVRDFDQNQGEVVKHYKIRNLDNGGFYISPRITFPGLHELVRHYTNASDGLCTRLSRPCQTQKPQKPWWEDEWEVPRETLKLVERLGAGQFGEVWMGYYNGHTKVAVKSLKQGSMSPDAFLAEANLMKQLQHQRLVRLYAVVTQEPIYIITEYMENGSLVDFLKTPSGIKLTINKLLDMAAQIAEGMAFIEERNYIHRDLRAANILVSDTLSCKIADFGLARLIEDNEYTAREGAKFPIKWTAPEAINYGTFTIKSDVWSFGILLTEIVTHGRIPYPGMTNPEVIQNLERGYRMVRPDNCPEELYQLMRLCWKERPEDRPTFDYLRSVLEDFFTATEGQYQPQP

[11] = target: Leucine-rich repeat serine/threonine-protein kinase 2 (Homo sapiens, UniProt Q5S007); conditions: 10 uM
Description: Inhibition of LRRK2 (unknown origin) at 10 uM by single point assay

[12] = target: PI3-kinase p110-alpha/p85-alpha (Homo sapiens) (UniProt P27986+P42336); experiment: Inhibition of PIK3CA/PIK3R1 (unknown origin) at 10 uM by single point assay; type: protein-complex assay
[13] = target: T2, Mitogen-activated protein kinase kinase kinase 7 (Homo sapiens) (UniProt O43318); experiment: Inhibition of MAP3K7 (unknown origin) at 10 uM by single point assay
T2 sequence (whole entry): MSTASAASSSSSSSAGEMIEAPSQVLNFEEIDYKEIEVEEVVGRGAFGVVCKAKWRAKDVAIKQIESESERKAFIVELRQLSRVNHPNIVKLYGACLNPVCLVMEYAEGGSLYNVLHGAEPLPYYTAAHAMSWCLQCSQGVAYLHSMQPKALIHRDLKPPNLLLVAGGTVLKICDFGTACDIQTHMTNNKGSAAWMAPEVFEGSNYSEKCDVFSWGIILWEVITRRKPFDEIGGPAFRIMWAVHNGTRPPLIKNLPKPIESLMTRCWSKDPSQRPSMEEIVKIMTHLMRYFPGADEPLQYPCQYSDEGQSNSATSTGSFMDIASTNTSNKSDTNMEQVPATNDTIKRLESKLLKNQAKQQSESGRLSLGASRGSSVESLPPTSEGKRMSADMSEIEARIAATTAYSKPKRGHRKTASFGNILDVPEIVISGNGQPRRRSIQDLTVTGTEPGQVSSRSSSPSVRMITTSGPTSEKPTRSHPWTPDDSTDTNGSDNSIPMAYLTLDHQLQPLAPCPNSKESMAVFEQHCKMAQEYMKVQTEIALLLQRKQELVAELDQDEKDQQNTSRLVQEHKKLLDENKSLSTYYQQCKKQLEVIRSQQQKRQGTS

[14] = target: Rho-associated protein kinase 2 (Homo sapiens) (UniProt O75116); experiment: Inhibition of ROCK2 (unknown origin) at 10 uM by single point assay
Chain of Rho-associated protein kinase 2 (Homo sapiens) (O75116 whole entry, looked up): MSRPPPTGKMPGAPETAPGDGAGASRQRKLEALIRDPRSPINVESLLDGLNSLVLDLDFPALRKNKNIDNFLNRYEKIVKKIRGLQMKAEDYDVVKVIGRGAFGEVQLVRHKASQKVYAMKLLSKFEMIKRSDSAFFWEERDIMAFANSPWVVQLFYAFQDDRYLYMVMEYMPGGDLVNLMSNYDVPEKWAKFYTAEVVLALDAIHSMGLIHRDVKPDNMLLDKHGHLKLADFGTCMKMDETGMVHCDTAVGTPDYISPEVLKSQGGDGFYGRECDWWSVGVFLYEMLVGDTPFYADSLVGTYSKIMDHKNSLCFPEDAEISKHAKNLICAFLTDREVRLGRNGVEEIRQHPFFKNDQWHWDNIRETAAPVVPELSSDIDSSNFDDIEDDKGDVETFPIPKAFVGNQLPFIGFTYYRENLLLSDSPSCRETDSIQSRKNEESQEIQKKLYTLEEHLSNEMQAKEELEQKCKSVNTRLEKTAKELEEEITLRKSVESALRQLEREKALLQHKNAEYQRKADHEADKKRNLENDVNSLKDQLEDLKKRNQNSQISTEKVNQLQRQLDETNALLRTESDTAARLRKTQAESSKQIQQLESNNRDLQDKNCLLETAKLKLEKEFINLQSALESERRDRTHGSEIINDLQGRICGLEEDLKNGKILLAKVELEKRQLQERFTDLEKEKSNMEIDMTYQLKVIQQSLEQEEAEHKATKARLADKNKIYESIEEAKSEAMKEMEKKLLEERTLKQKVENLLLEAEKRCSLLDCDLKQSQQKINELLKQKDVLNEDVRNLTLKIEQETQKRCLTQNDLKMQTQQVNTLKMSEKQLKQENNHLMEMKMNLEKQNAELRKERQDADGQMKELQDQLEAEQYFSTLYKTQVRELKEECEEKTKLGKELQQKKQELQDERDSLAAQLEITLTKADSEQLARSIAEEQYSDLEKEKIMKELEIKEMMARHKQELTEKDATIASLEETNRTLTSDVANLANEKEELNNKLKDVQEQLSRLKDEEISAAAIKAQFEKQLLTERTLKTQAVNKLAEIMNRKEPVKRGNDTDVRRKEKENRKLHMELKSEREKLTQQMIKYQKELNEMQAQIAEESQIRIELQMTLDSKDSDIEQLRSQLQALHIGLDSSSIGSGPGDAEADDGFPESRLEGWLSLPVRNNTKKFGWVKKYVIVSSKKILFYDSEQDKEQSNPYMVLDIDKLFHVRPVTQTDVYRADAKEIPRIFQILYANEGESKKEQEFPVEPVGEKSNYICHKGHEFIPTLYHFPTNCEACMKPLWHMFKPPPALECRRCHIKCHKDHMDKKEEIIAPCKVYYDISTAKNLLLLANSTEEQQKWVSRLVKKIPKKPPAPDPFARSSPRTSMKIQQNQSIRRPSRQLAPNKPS

[15] = target: Dual specificity protein kinase CLK1 (Homo sapiens) (UniProt P49759); experiment: Inhibition of CLK1 (unknown origin) at 10 uM by single point assay
[16] = target: Serine/threonine-protein kinase PLK3 (Homo sapiens) (UniProt Q9H4B4); experiment: Inhibition of PLK3 (unknown origin) at 10 uM by single point assay
[17] = target: Protein-tyrosine kinase 2-beta (Homo sapiens) (UniProt Q14289); experiment: Inhibition of PTK2B (unknown origin) at 10 uM by single point assay
Brain = experiment: Drug uptake in brain of mouse expressing mouse LRRK2 G2019S mutant at 30 mg/kg, po; type: ADME, organism-based; parameters: dose 30 mg/kg, route oral; conditions: in vivo
Mus musculus [18] = experiment: In vivo inhibition of mouse LRRK2 G2019S mutant phosphorylation at Ser935 expressed in mouse brain at 30 mg/kg, po measured after 3 hrs by ELISA; type: functional
[19] = target: Mitogen-activated protein kinase 1 (Homo sapiens) (UniProt P28482); experiment: Inhibition of MAPK1 (unknown origin) at 1 uM by single point assay
Chain of Mitogen-activated protein kinase 1 (Homo sapiens) (P28482 whole entry): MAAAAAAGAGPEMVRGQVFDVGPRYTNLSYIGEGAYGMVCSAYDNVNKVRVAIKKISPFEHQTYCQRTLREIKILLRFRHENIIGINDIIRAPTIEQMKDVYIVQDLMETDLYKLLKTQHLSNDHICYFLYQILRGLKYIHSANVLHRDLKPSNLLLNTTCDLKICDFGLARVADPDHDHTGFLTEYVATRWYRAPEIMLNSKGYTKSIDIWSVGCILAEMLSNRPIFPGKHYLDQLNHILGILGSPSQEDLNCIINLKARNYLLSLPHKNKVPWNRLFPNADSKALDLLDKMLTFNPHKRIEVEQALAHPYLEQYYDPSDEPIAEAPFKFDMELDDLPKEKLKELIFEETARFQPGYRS

[20] = target: Cyclin-dependent kinase 2/cyclin A (Homo sapiens) (UniProt P24941+P20248+P78396); experiment: Inhibition of CDK2/cyclin A (unknown origin) at 1 uM by single point assay; type: protein-complex assay
[21] = Ratio of drug uptake in brain to plasma of mouse expressing mouse LRRK2 G2019S mutant at 30 mg/kg, po; type: ADME, organism-based; parameters: dose 30 mg/kg, route oral; conditions: read-out: BPR
[22] = target: Rho-associated protein kinase 2 (Homo sapiens) (UniProt O75116); experiment: Inhibition of ROCK2 (unknown origin) at 1 uM by single point assay
[23] = target: Insulin receptor (Homo sapiens) (UniProt P06213); experiment: Inhibition of INSR (unknown origin) at 1 uM by single point assay
Mus musculus [24] = experiment: In vivo inhibition of mouse LRRK2 G2019S mutant phosphorylation at Ser935 expressed in mouse brain at 100 mg/kg, po measured after 3 hrs by ELISA; type: functional
[25] = target: Tyrosine-protein kinase Lck (Homo sapiens) (UniProt P06239); experiment: Inhibition of LCK (unknown origin) at 1 uM by single point assay
[26] = target: Receptor-interacting serine/threonine-protein kinase 2 (Homo sapiens) (UniProt O43353); experiment: Inhibition of RIPK2 (unknown origin) at 1 uM by single point assay

inhibition [1]: 8% | inhibition [2]: 6% | inhibition [3]: 0% | inhibition [4]: -3% | inhibition [5]: -2% | inhibition [6]: 71% | inhibition [7]: 5% | inhibition [8]: 56% | inhibition [9]: 31% | inhibition [10]: 18% | inhibition [11]: 81% | inhibition [12]: 13% | inhibition [13]: -5% | inhibition [14]: 16% | inhibition [15]: 7% | inhibition [16]: 6% | inhibition [17]: 16%
SMILES: C[C@@H](Nc1c(C#N)cnc2cc(-c3ccc(-n4ccoc4=O)cc3)ccc12)C1CC1

Drug uptake (Brain): 4 ng/mL | inhibition [19]: -2% | inhibition [20]: 5% | Kp [21]: 1.2 | inhibition [22]: 14% | inhibition [23]: 1% | inhibition [25]: 31% | inhibition [26]: 77%
SMILES: CC(C)Nc1c(C#N)cnc2cc(-c3cnn(C)c3)ccc12
inhibition in vivo at 30 mg/kg (Mus musculus [18]): 30% | inhibition in vivo at 100 mg/kg (Mus musculus [24]): 44%

inhibition [19]: 10% | inhibition [20]: 12% | inhibition [22]: 12% | inhibition [23]: 6% | inhibition [25]: 26% | inhibition [26]: 17%
SMILES: CC(C)Nc1c(C#N)cnc2cc(-c3ccc(S(C)(=O)=O)cc3)ccc12
